We go through six compounds from patent US20250041429A1, “COMPOUND HAVING BTK PROTEIN DEGRADATION ACTIVITY, AND MEDICAL USES THEREOF” (UBIX THERAPEUTICS, INC., priority 2021, published 2025).

This assay has as its target T1, BTK protein (Homo sapiens, UniProt Q06187).
T1 construct: endogenous in cells; host or cells: TMD-8 cells
The assay is described as follows: Measurement of BTK protein degradation ability in TMD-8 cells (Western blotting). The assay is classed as cell-based. The conditions noted are these: harvested after 24 hours; for BTK degradation (%) 1 nM: compound 1 nM; for BTK degradation (%) 10 nM: compound 10 nM; for BTK degradation (%) 100 nM: compound 100 nM. The gist of the method: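 TMD-8 cells (1×10^6/mL) were treated for 24 h with compound at 0.1, 1, 10 μM or 0.0001–0.1 μM, with DMSO as vehicle control. RIPA lysates were normalized by BCA assay. BTK was detected by Western blot with anti-BTK, using GAPDH or β-actin as loading controls, and imaged on LI-COR Odyssey.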
(In general: Immunoblotting shows a protein as a band on a membrane.)

Molecules are shown by their SMILES.

T1 sequence (Q06187 whole entry): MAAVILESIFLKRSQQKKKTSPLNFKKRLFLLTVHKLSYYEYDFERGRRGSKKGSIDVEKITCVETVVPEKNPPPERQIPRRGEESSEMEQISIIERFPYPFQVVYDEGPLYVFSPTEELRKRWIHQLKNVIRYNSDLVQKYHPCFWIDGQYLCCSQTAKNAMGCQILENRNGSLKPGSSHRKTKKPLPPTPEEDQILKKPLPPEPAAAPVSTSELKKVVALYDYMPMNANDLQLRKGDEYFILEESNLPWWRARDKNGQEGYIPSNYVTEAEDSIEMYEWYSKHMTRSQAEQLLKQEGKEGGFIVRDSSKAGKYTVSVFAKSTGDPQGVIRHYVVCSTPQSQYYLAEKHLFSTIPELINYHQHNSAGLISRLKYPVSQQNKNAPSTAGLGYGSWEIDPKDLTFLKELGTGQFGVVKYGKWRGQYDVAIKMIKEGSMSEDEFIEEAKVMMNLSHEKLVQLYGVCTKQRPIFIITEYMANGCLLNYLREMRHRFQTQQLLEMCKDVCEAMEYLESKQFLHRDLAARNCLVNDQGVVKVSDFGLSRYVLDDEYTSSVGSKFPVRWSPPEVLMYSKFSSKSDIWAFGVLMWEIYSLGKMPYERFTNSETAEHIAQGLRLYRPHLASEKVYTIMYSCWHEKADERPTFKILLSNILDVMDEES

For the compound `Cc1cc(-c2ccnc(Nc3ccc(N4CCN(CC5CCN(C(=O)c6cccc(OC7CCC(=O)NC7=O)c6)CC5)CC4)cc3)n2)ccc1CNC(=O)N1CC(OC(C)C)C1` (stereo not drawn) [Example 102, N-(4-(2-((4-(4-((1-(3-((2,6-dioxopiperidin-3-yl)oxy)benzoyl)piperidin-4-yl)methyl)piperazin-1-yl)phenyl)amino)pyrimidin-4-yl)-2-methylbenzyl)-3-isopropoxyazetidine-1-carboxamide], the “BTK degradation (%) 1 nM” value came out at 19.0%, the “BTK degradation (%) 10 nM” value turned out to be 82.5% and the “BTK degradation (%) 100 nM” value amounted to 94.0%.
The corresponding values for `Cc1cc(-c2ccnc(Nc3ccc(N4CCN(C5CCN(C(=O)c6cccc(NC7CCC(=O)NC7=O)c6)CC5)CC4)cc3)n2)ccc1CNC(=O)N1CC(OC(C)C)C1` (stereo not drawn) [Example 103, N-(4-(2-((4-(4-(1-(3-((2,6-dioxopiperidin-3-yl)amino)benzoyl)piperidin-4-yl)piperazin-1-yl)phenyl)amino)pyrimidin-4-yl)-2-methylbenzyl)-3-isopropoxyazetidine-1-carboxamide] are −12.5%, 69.0% and 97.0%.
The corresponding values for `Cc1cc(-c2ccnc(Nc3ccc(C4CCN(C5CCN(C(=O)c6cccc(NC7CCC(=O)NC7=O)c6)CC5)CC4)cc3)n2)ccc1CNC(=O)N1CC(OC(C)C)C1` (stereo not drawn) [Example 104, N-(4-(2-((4-(1′-(3-((2,6-dioxopiperidin-3-yl)amino)benzoyl)-[1,4′-bipiperidin]-4-yl)phenyl)amino)pyrimidin-4-yl)-2-methylbenzyl)-3-isopropoxyazetidine-1-carboxamide] are −9.0%, 39.0% and 95.5%.
For the compound `Cc1cc(-c2ccnc(Nc3ccc(N4CCN(CC5CCN(CC(=O)Nc6cccc(NC7CCC(=O)NC7=O)c6)CC5)CC4)cc3)n2)ccc1CNC(=O)N1CC(OC(C)C)C1` (stereo not drawn) [Example 105, N-(4-(2-((4-(4-((1-(2-((3-((2,6-dioxopiperidin-3-yl)amino)phenyl)amino)-2-oxoethyl)piperidin-4-yl)methyl)piperazin-1-yl)phenyl)amino)pyrimidin-4-yl)-2-methylbenzyl)-3-isopropoxyazetidine-1-carboxamide], the “BTK degradation (%) 1 nM” value was determined as 35%, the “BTK degradation (%) 10 nM” value was determined as 91.5% and the “BTK degradation (%) 100 nM” value was 98%.
As to `Cc1c(NC(=O)N2CC(OC(C)C)C2)cc(F)cc1-c1ccnc(Nc2ccc(N3CCN(CC4CCN(CC(=O)Nc5cccc(NC6CCC(=O)NC6=O)c5)CC4)CC3)cc2)n1` (stereo not drawn) [Example 106, N-(3-(2-((4-(4-((1-(2-((3-((2,6-dioxopiperidin-3-yl)amino)phenyl)amino)-2-oxoethyl)piperidin-4-yl)methyl)piperazin-1-yl)phenyl)amino)pyrimidin-4-yl)-5-fluoro-2-methylphenyl)-3-isopropoxyazetidine-1-carboxamide], the “BTK degradation (%) 1 nM” value came out at 1%, the “BTK degradation (%) 10 nM” value amounted to 20% and the “BTK degradation (%) 100 nM” value worked out at 76%.
The corresponding values for `Cc1cc(-c2ccnc(Nc3ccc(N4CCN(CC5CN(c6ccc7c(n6)CN(C6CCC(=O)NC6=O)C7=O)C5)CC4)cc3)n2)ccc1CNC(=O)N1CC(OC(C)C)C1` (stereo not drawn) [Example 107, N-(4-(2-((4-(4-((1-(6-(2,6-dioxopiperidin-3-yl)-5-oxo-6,7-dihydro-5H-pyrrolo[3,4-b]pyridin-2-yl)azetidin-3-yl)methyl)piperazin-1-yl)phenyl)amino)pyrimidin-4-yl)-2-methylbenzyl)-3-isopropoxyazetidine-1-carboxamide] are 63.5%, 95% and 98%.
